Read-outs that look alike come from different tables or passages of the source.

The values that follow come from US4079141A, “Azabicycloalkanes” (priority 1976, dated 1978).

Test [1] concerns 2-phenyl-1,4-quinone induced writhing. Briefly: 2-phenyl-1,4-quinone induced writhing assay in mice (analgesia). Particulars: Mus musculus, sc, read-out: ED50 (inhibition of writhing). It is filed as in vivo. The source says: Compounds of the invention are useful as analgesic agents due to their ability to alleviate pain in mammals. […] Exptl. Biol. Med., 95, 729 (1957)].
The subject of test [2] is mania (increased motor activity) produced in mice by morphine. The test is described as follows: Morphine antagonist test: inhibition of the characteristic mania (increased motor activity) produced in mice by morphine. Particulars: for % Inhibition (percent of pairs in which the mania is inhibited): subcutaneous, concurrently with 25 mg/kg morphine sulfate, 10 pairs of mice. It is filed as in vivo. On the procedure:
A sample of 25 mg/kg of body weight of morphine sulfate and the compound of the invention to be tested are concurrently administered subcutaneously to 10 pairs of mice. The mice are then observed for inhibition of the characteristic mania (increased motor activity) normally produced in mice by morphine. Results are outlined in Table II and expressed as percent of pairs in which the mania is inhibited at a given dose level.

Setting [3] is: 0.5 h, mice, subcutaneous, drug administration time 30 minutes.
Where [4] appears, read: 0.25 h, mice, subcutaneous, drug administration time 15 minutes.

With `CN1CCC2(c3cccc(O)c3)CCC1C2` (stereo not shown) [5-(3-hydroxyphenyl)-2-methyl-2-azabicyclo[3.2.1]octane.HBr], in test [1] (setting [3]), the ED50 stood at 9.5 mg/kg. Further, the “% Inhibition (percent of pairs in which the mania is inhibited)” value in test [2] (dose 50 mg/kg) is on record as 80%.

Take `CCCCN1CCC2(c3cccc(OC)c3)CCC1C2` (stereo not shown) [2-n-butyl-5-(3-methoxyphenyl)-2-azabicyclo[3.2.1]octane.HBr]: the ED50 in test [1] (setting [3]) came out at 4.6 mg/kg. The “% Inhibition (percent of pairs in which the mania is inhibited)” value in test [2] (dose 25 mg/kg) amounted to 100%.

As to `COc1cccc(C23CCC(C2)N(CCCC(=O)c2ccc(F)cc2)CC3)c1` (stereo not shown) [2-[3-(4-fluorobenzoyl)propyl]-5-(3-methoxyphenyl)-2-azabicyclo[3.2.1]octane.HBr], the ED50 in test [1] (1 h, mice, subcutaneous, drug administration time 60 minutes) stood at 0.7 mg/kg. Moreover, the “% Inhibition (percent of pairs in which the mania is inhibited)” value in test [2] (dose 10 mg/kg) is listed as 100%.

Regarding `O=C(CCCN1CCC2(c3cccc(O)c3)CCC1C2)c1ccc(F)cc1` (stereo not shown) [2-[3-(4-fluorobenzoyl)propyl]-5-(3-hydroxyphenyl)-2-azabicyclo[3.2.1]octane], the ED50 in test [1] (setting [3]) amounted to 0.35 mg/kg.

With `CC(=O)Oc1cccc(C23CCC(C2)N(CCc2ccccc2)CC3)c1` (stereo not shown) [5-(3-acetoxyphenyl)-2-phenethyl-2-azabicyclo[3.2.1]octane.HBr], the ED50 in test [1] (setting [3]) worked out at 6.1 mg/kg. In addition, the “% Inhibition (percent of pairs in which the mania is inhibited)” value in test [2] (dose 10 mg/kg) amounted to 70%.

For `CC(C)=CCN1CCC2(C)c3cc(O)ccc3CC1C2C` (stereo not shown) [pentazocine, reference compound], the ED50 in test [1] (setting [4]) was 1.5 mg/kg; in test [1] (setting [3]), 4.8 mg/kg; in test [2] (Mus musculus, sc, mice, concurrently with morphine sulfate, for comparison, read-out: dose exhibiting a 50% inhibition (of morphine mania)) it was over 50 mg/kg.

Regarding `COc1cccc(C23CCC(C2)N(C)CC3)c1` (stereo not shown) [5-(3-methoxyphenyl)-2-methyl-2-azabicyclo[3.2.1]octane.HBr], the ED50 in test [1] (setting [3]) was determined as 7.9 mg/kg. For the same compound, in test [2] (dose 50 mg/kg), the “% Inhibition (percent of pairs in which the mania is inhibited)” value is recorded as 50%.

`CCCCN1CCC2(c3cccc(O)c3)CCC1C2` (stereo not shown) [2-n-butyl-5-(3-hydroxyphenyl)-2-azabicyclo[3.2.1]octane.HBr]: the ED50 in test [1] (setting [4]) amounted to 9 mg/kg. The “% Inhibition (percent of pairs in which the mania is inhibited)” value in test [2] (dose 25 mg/kg) is given as 100%.

Take `CC(=O)Oc1cccc(C23CCC(C2)N(C)CC3)c1` (stereo not shown) [5-(3-acetoxyphenyl)-2-methyl-2-azabicyclo[3.2.1]octane.HBr]: the “% Inhibition (percent of pairs in which the mania is inhibited)” value in test [2] (dose 50 mg/kg) is given as 100%.

On to `Oc1cccc(C23CCC(C2)N(CC2CC2)CC3)c1` (stereo not shown) [2-cyclopropylmethyl-5-(3-hydroxyphenyl)-2-azabicyclo[3.2.1]octane.HBr], for which the ED50 in test [1] (setting [3]) turned out to be 6 mg/kg. Further, in test [2] (dose 25 mg/kg), the “% Inhibition (percent of pairs in which the mania is inhibited)” value was found to be 100%.

For `Oc1cccc(C23CCC(C2)N(Cc2ccco2)CC3)c1` (stereo not shown) [2-(2-furylmethyl)-5-(3-hydroxyphenyl)-2-azabicyclo[3.2.1]octane.HBr], the ED50 in test [1] (setting [4]) amounted to 22 mg/kg. Also, the “% Inhibition (percent of pairs in which the mania is inhibited)” value in test [2] (dose 25 mg/kg) was found to be 100%.

Consider `CCCCCN1CCC2(c3cccc(OC)c3)CCC1C2` (stereo not shown) [2-n-amyl-5-(3-methoxyphenyl)-2-azabicyclo[3.2.1]octane.HBr], for which the ED50 in test [1] (setting [3]) was found to be 5 mg/kg. Also, in test [2] (dose 30 mg/kg), the “% Inhibition (percent of pairs in which the mania is inhibited)” value came to 100%.

For the compound `O=C(CCCN1CCC2(c3cccc(O)c3)CCC1C2)c1ccc(F)cc1` (stereo not shown) [2-[3-(4-fluorobenzoyl)propyl]-5-(3-hydroxyphenyl)-2-azabicyclo[3.2.1]octane.HBr], in test [2] (dose 10 mg/kg), the “% Inhibition (percent of pairs in which the mania is inhibited)” value came to 100%.

Regarding `CCCCCN1CCC2(c3cccc(O)c3)CCC1C2` (stereo not shown) [2-n-amyl-5-(3-hydroxyphenyl)-2-azabicyclo[3.2.1]octane.HBr], the ED50 in test [1] (setting [3]) stood at 11 mg/kg. Besides, the “% Inhibition (percent of pairs in which the mania is inhibited)” value in test [2] (dose 3 mg/kg) is 50%; in test [2] (dose 25 mg/kg), 100%.

As to `CN1CC[C@]23c4c5ccc(O)c4O[C@H]2[C@@H](O)C=C[C@H]3[C@H]1C5` [morphine, reference compound], the ED50 in test [1] (0.5 h) was 0.47 mg/kg.

Regarding `CCCN1CCC2(c3cccc(O)c3)CCC1C2` (stereo not shown) [5-(3-hydroxyphenyl)-2-n-propyl-2-azabicyclo[3.2.1]octane.HBr], in test [1] (setting [4]), the ED50 stood at 8.9 mg/kg. The “% Inhibition (percent of pairs in which the mania is inhibited)” value in test [2] (dose 50 mg/kg) stood at 100%.

For `COc1cccc(C23CCC(C2)N(CCc2ccccc2)CC3)c1` (stereo not shown) [5-(3-methoxyphenyl)-2-phenethyl-2-azabicyclo[3.2.1]octane.HBr], the ED50 in test [1] (setting [3]) is 5.9 mg/kg.

In the case of `CCCN1CCC2(c3cccc(OC)c3)CCC1C2` (stereo not shown) [5-(3-methoxyphenyl)-2-n-propyl-2-azabicyclo[3.2.1]octane.HBr], the ED50 in test [1] (setting [4]) is 7.4 mg/kg. Also, the “% Inhibition (percent of pairs in which the mania is inhibited)” value was 50% in test [2] (dose 10 mg/kg) and 100% in test [2] (dose 50 mg/kg).

Regarding `Oc1cccc(C23CCC(C2)N(CCc2ccccc2)CC3)c1` (stereo not shown) [5-(3-hydroxyphenyl)-2-phenethyl-2-azabicyclo[3.2.1]octane.HBr], the ED50 in test [1] (setting [4]) is 0.7 mg/kg. Also, the “% Inhibition (percent of pairs in which the mania is inhibited)” value in test [2] (dose 1 mg/kg) is given as 50%; in test [2] (dose 50 mg/kg) it was 100%.
